Source: patent US20170226081A1, “GLUCOSE TRANSPORT INHIBITORS” (Bayer Pharma Aktiengesellschaft, priority 2014, published 2017)

Target: T1, GLUT1 (Homo sapiens, UniProt P11166)
T1 construct: endogenous in cells
T1 sequence (P11166 1-492): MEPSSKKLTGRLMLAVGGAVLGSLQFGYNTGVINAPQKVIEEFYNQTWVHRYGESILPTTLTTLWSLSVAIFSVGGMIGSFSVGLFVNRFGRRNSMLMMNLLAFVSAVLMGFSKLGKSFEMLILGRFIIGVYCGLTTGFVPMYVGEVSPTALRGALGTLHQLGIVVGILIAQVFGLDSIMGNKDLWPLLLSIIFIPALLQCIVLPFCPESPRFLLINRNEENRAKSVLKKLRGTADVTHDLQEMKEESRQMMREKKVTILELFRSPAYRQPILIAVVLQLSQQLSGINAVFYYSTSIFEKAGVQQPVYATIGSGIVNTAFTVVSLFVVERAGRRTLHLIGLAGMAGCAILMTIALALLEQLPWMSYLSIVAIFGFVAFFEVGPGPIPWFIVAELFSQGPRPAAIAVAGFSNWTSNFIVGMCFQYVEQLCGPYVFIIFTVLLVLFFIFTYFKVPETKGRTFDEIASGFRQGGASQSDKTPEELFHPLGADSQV
Assay: Indirect measurement of GLUT activity by quantification of intracellular ATP levels (glucose induced ATP increase)
Type: cell-based
Settings: DLD1 cells; 1 mM glucose, 1 uM Rotenone, 15 min; standardized to cytochalasin B IC50 values; read-out: IC50 regarding glucose induced ATP increase (GLUT1 inhibition)
Excerpt: It is well known that a combination of small-molecule inhibitors of mitochondrial electron transport chain and glucose catabolism synergistically suppress ATP production and impair cellular viability (Ulanovskaya et al., 2008, 2011; Liu, et al. 2001). We therefore used DLD1 or CHO-K1 cells in combination with an oxidative phosphorylation inhibitor to identify GLUT inhibitors. Cell lines were maintained in DMEM medium supplemented with 10% FCS and 1% Penicillin-Streptomycin solution and 2% Glutamax. The cells were treated with trypsin and seeded into 384 plates at a density of 4000 cells/well. The cells were then cultured overnight in glucose free media containing 1% FCS to reduce intracellular ATP levels. After 24 h the cells were incubated at 37° C. containing the appropriate glucose or in case of GLUT2 fructose concentration (1 mM and 30 mM respectively) with or without compounds and 1 uM Rotenone for 15 min. The CellTiter-Glo® Luminescent Cell Viability Assay from Promega was then used to measure ATP levels. Compounds able to reduce the ATP Levels within 15 min of glucose application were considered to be glucose uptake inhibitors.

Compound | IC50
N#Cc1ccc(Cn2cc(NC(=O)c3cc(C(F)(F)F)nc4ccc(Br)cc34)c(C(F)(F)F)n2)cc1 [Example 36, 6-bromo-N-[1-(4-cyanobenzyl)-3-(trifluoromethyl)-1H-pyrazol-4-yl]-2-(trifluoromethyl)quinoline-4-carboxamide] | 84 nM
Cc1nc(Cn2cc(NC(=O)c3cc(C(N)=O)nc4ccccc34)c(C)n2)cs1 [Example 68, N^4-{3-methyl-1-[(2-methyl-1,3-thiazol-4-yl)methyl]-1H-pyrazol-4-yl}quinoline-2,4-dicarboxamide] | 260 nM
COc1cc(C(=O)Nc2cn(Cc3ccc(F)cc3)nc2C)c2ccccc2n1 [Example 3, N-[1-(4-fluorobenzyl)-3-methyl-1H-pyrazol-4-yl]-2-methoxyquinoline-4-carboxamide] | 150 nM
CNC(=O)c1nc(Cn2cc(NC(=O)c3cc(C(N)=O)nc4ccccc34)c(C)n2)no1 [Example 65, N^4-(3-methyl-1-{[5-(methylcarbamoyl)-1,2,4-oxadiazol-3-yl]methyl}-1H-pyrazol-4-yl)quinoline-2,4-dicarboxamide] | 301 nM
Cc1cc(Cn2cc(NC(=O)c3cc(C(N)=O)nc4ccccc34)c(C)n2)no1 [Example 74, N^4-{3-methyl-1-[(5-methyl-1,2-oxazol-3-yl)methyl]-1H-pyrazol-4-yl}quinoline-2,4-dicarboxamide] | 153 nM
CNC(=O)c1nc(Cn2cc(NC(=O)c3cc(C(F)(F)F)nc4ccc(Br)cc34)c(C)n2)no1 [Example 69, 6-bromo-N-(3-methyl-1-{[5-(methylcarbamoyl)-1,2,4-oxadiazol-3-yl]methyl}-1H-pyrazol-4-yl)-2-(trifluoromethyl)quinoline-4-carboxamide] | 64 nM
CS(=O)(=O)c1ccc(Cn2cc(NC(=O)c3cc(C(F)(F)F)nc4ccc(Br)cc34)c(C(F)(F)F)n2)cc1 [Example 43, 6-bromo-N-{1-[4-(methylsulfonyl)benzyl]-3-(trifluoromethyl)-1H-pyrazol-4-yl}-2-(trifluoromethyl)quinoline-4-carboxamide] | 440 nM
COc1ccc(Cn2cc(NC(=O)c3cc(C(N)=O)nc4ccccc34)c(C(F)(F)F)n2)cc1 [Example 49, N^4-[1-(4-methoxybenzyl)-3-(trifluoromethyl)-1H-pyrazol-4-yl]quinoline-2,4-dicarboxamide] | 4.1 nM
COc1cc(C(=O)Nc2cn(Cc3ccc(C#N)cc3)nc2C(F)(F)F)c2ccccc2n1 [Example 37, N-[1-(4-cyanobenzyl)-3-(trifluoromethyl)-1H-pyrazol-4-yl]-2-methoxyquinoline-4-carboxamide] | 179 nM
CCc1nn(Cc2ccc(C#N)cc2)cc1NC(=O)c1cc(C(N)=O)nc2ccccc12 [Example 60, N^4-[1-(4-cyanobenzyl)-3-ethyl-1H-pyrazol-4-yl]quinoline-2,4-dicarboxamide] | 23 nM
Cc1nn(Cc2ccc(C#N)cc2)cc1NC(=O)c1cc(C(N)=O)nc2cc(F)c(Cl)cc12 [Example 53, 6-chloro-N^4-[1-(4-cyanobenzyl)-3-methyl-1H-pyrazol-4-yl]-7-fluoroquinoline-2,4-dicarboxamide] | 4 nM
CNC(=O)c1nn(Cc2ccc(F)cc2)cc1NC(=O)c1cc(C(F)(F)F)nc2ccc(Br)cc12 [Example 22, 6-bromo-N-[1-(4-fluorobenzyl)-3-(methylcarbamoyl)-1H-pyrazol-4-yl]-2-(trifluoromethyl)quinoline-4-carboxamide] | 20100 nM
Cc1nn(Cc2ccccc2C#N)cc1NC(=O)c1cc(C(F)(F)F)nc2ccc(Br)cc12 [Example 14, 6-bromo-N-[1-(2-cyanobenzyl)-3-methyl-1H-pyrazol-4-yl]-2-(trifluoromethyl)quinoline-4-carboxamide] | 97 nM
CN(C)C(=O)c1nn(Cc2ccc(F)cc2)cc1NC(=O)c1cc(C(F)(F)F)nc2ccc(Br)cc12 [Example 19, 6-bromo-N-[3-(dimethylcarbamoyl)-1-(4-fluorobenzyl)-1H-pyrazol-4-yl]-2-(trifluoromethyl)quinoline-4-carboxamide] | 20 nM
CCc1noc(Cn2cc(NC(=O)c3cc(C(N)=O)nc4ccccc34)c(C)n2)n1 [Example 66, N^4-{1-[(3-ethyl-1,2,4-oxadiazol-5-yl)methyl]-3-methyl-1H-pyrazol-4-yl}quinoline-2,4-dicarboxamide] | 430 nM
NC(=O)c1cc(C(=O)Nc2cn(Cc3ccncc3)nc2C(F)(F)F)c2ccccc2n1 [Example 41, N^4-[1-(pyridin-4-ylmethyl)-3-(trifluoromethyl)-1H-pyrazol-4-yl]quinoline-2,4-dicarboxamide] | 422 nM
CNC(=O)c1nn(Cc2ccc(C#N)cc2)cc1NC(=O)c1cc(C(F)(F)F)nc2ccc(Br)cc12 [Example 27, 6-bromo-N-[1-(4-cyanobenzyl)-3-(methylcarbamoyl)-1H-pyrazol-4-yl]-2-(trifluoromethyl)quinoline-4-carboxamide] | 893 nM
CCS(=O)(=O)N1CCC(Cn2cc(NC(=O)c3cc(C(F)(F)F)nc4ccc(Br)cc34)c(C)n2)CC1 [Example 67, 6-bromo-N-(1-{[1-(ethylsulfonyl)piperidin-4-yl]methyl}-3-methyl-1H-pyrazol-4-yl)-2-(trifluoromethyl)quinoline-4-carboxamide] | 665 nM
Cc1nn(Cc2ccc(F)cc2)cc1NC(=O)c1cc(C2CC2)nc2ccc(F)cc12 [Example 6, 2-cyclopropyl-6-fluoro-N-[1-(4-fluorobenzyl)-3-methyl-1H-pyrazol-4-yl]quinoline-4-carboxamide] | 125 nM
Cc1cc(Cn2cc(NC(=O)c3cc(C(F)(F)F)nc4ccc(Br)cc34)c(C)n2)no1 [Example 71, 6-bromo-N-{3-methyl-1-[(5-methyl-1,2-oxazol-3-yl)methyl]-1H-pyrazol-4-yl}-2-(trifluoromethyl)quinoline-4-carboxamide] | 294 nM
N#Cc1ccc(Cn2cc(NC(=O)c3cc(C(F)(F)F)nc4ccc(Br)cc34)c(C(=O)O)n2)cc1 [Example 25, 4-({[6-bromo-2-(trifluoromethyl)quinolin-4-yl]carbonyl}amino)-1-(4-cyanobenzyl)-1H-pyrazole-3-carboxylic acid] | 10200 nM
CN(C)C(=O)c1nn(Cc2ccc(C#N)cc2)cc1NC(=O)c1cc(C(F)(F)F)nc2ccc(Br)cc12 [Example 29, 6-bromo-N-[1-(4-cyanobenzyl)-3-(dimethylcarbamoyl)-1H-pyrazol-4-yl]-2-(trifluoromethyl)quinoline-4-carboxamide] | 1700 nM
COc1ccc(Cn2cc(NC(=O)c3cc(C(F)(F)F)nc4ccc(Br)cc34)c(C)n2)cc1 [Example 12, 6-bromo-N-[1-(4-methoxybenzyl)-3-methyl-1H-pyrazol-4-yl]-2-(trifluoromethyl)quinoline-4-carboxamide] | 29 nM
COc1ccc(Cn2cc(NC(=O)c3cc(C(F)(F)F)nc4ccc(Br)cc34)c(C(F)(F)F)n2)cc1 [Example 47, 6-bromo-N-[1-(4-methoxybenzyl)-3-(trifluoromethyl)-1H-pyrazol-4-yl]-2-(trifluoromethyl)quinoline-4-carboxamide] | 138 nM
O=C(NCCO)c1nn(Cc2ccc(F)cc2)cc1NC(=O)c1cc(C(F)(F)F)nc2ccc(Br)cc12 [Example 20, 6-bromo-N-{1-(4-fluorobenzyl)-3-[(2-hydroxyethyl)carbamoyl]-1H-pyrazol-4-yl}-2-(trifluoromethyl)quinoline-4-carboxamide] | 2000 nM
Cc1nn(Cc2ccn(C)n2)cc1NC(=O)c1cc(C(N)=O)nc2ccccc12 [Example 63, N^4-{3-methyl-1-[(1-methyl-1H-pyrazol-3-yl)methyl]-1H-pyrazol-4-yl}quinoline-2,4-dicarboxamide] | 190 nM
NC(=O)c1nn(Cc2ccc(F)cc2)cc1NC(=O)c1cc(C(F)(F)F)nc2ccc(Br)cc12 [Example 21, 6-bromo-N-[3-carbamoyl-1-(4-fluorobenzyl)-1H-pyrazol-4-yl]-2-(trifluoromethyl)quinoline-4-carboxamide] | 1150 nM
COc1ccc(Cn2cc(NC(=O)c3cc(OC)nc4ccccc34)c(C)n2)cc1 [Example 11, 2-methoxy-N-[1-(4-methoxybenzyl)-3-methyl-1H-pyrazol-4-yl]quinoline-4-carboxamide] | 21 nM
COC(=O)c1nn(Cc2ccc(C#N)cc2)cc1NC(=O)c1cc(C(F)(F)F)nc2ccc(Br)cc12 [Example 24, methyl 4-({[6-bromo-2-(trifluoromethyl)quinolin-4-yl]carbonyl}amino)-1-(4-cyanobenzyl)-1H-pyrazole-3-carboxylate] | 1650 nM
COc1cc(C(=O)Nc2cn(Cc3ccc(C#N)cc3)nc2C)c2ccccc2n1 [Example 10, N-[1-(4-cyanobenzyl)-3-methyl-1H-pyrazol-4-yl]-2-methoxyquinoline-4-carboxamide] | 79 nM
